Test results taken from patent publication US11478526B2, “Methods of reducing neuroinflammation or toxicity induced by amyloid beta (abeta) using glucocorticoid induced leucine zipper (GILZ) analog peptides” (INDIANA UNIVERSITY RESEARCH AND TECHNOLOGY CORPORATION, priority 2016, dated 2022).

Tested on: Aβ1-42 exposed HFB cells
Assay: Cytokines in culture medium of Aβ1-42 exposed HFB
Format: cell-based, human
Details: 50 μM peptide
Method: Fetal brain materials (10-20 g) were shipped overnight in chilled Hibernate-E medium (Invitrogen) supplemented with B27 (Invitrogen), GlutaMAX (Invitrogen) and antibiotic-antimycotic solution (Cellgro). HFB were prepared and cultured as described. Briefly, cells were cultured in Neurobasal medium (Invitrogen) without phenol red supplemented with 1×B27, […] GlutaMAX, 1×antibiotic cocktail, 5 ng/mL recombinant fibroblast growth factor 2 (bFGF) (Invitrogen), and 2 μL/mL Normocin (InVivoGen, San Diego, Calif., USA). Cells were counted and seeded onto poly-D-lysine (Sigma-Aldrich) coated 24-well plates (Corning, Lowell, Mass., USA) at 1.5×10^5 cells per well and maintained at 37° C. in a 5% CO2 incubator. Half media changes were performed every 4th day of culture and morphology was monitored via phase contrast microscopy. Culture medium was removed from cells on day 17 (DIV17) and replaced with Neurobasal medium with B27. Appropriate wells were then added vehicle, or carrier peptide or individual GA or control peptide (at 50 μM) for 30 min followed by exposure to Aβ1-42 at a final concentration of 10 μM/well and incubated for 4 hours or 48 hours. Cells and conditioned media were harvested and stored for further analysis. Relative ATP concentration was measured using the CTG kit (Promega). Data is presented as ΔRLU=RLU of Aβ1-42 exposed cells-RLU unexposed cells. Conditioned media collected were assessed for specific cytokines using the OptEIA kits (BD Biosciences). Nuclear and cytoplasmic fractions were extracted using the CelLytic™ NuCLEAR™ Extraction Kit (Sigma) following manufacturer's protocol. Five microgram of nuclear extracts was incubated in a 96-well plate coated with oligonucleotides containing the NF-κβ consensus nucleotide sequence (5′-[…]-3′) (SEQ ID NO: 30). The activated NF-κβ bound to DNA was detected by anti-p65 antibody followed by a peroxidase coupled secondary antibody and substrate using the TransAM kit protocol (Active Motif). Nuclear extracts of Raji cells was used as the positive control.
Select PGA protects against Aβ1-42 induced toxicity, prevents p65 activation and cytokine response in human fetal brain (HFB) cells. […] Viability in terms of relative luminescent Units (RLU) was quantified using a Glowmax luminometer (Promega, Wis.). Data are presented as ARLU=RLU of Aβ1-42 exposed cells-RLU of unexposed cells. […] The mean RLU of vehicle treated HFB varied between 7352.75+/−1265.2 and 16157.5+/−4950. […] The culture supernatants were assessed for cytokines by ELISA (R&D Systems, Minn.). […] Primary HFB cultured similarly and harvested at the end of 4 hours was assessed for nuclear p65 using TransAM kit for NF-κB p65 (Active Motif, Calif.).

Substance: Ac-EPAPESPQV-NH2 [GA-2]
- relative concentration of IL-6 in culture medium: significantly lower
- relative concentration of IL-10 in culture medium: significantly lower

Substance: Ac-EPAPLAPYG-NH2 [GA-1]
- relative concentration of IL-6 in culture medium: significantly lower
- relative concentration of IL-10 in culture medium: significantly lower
